From patent US7851637B2, “Compounds and methods for inhibiting the interaction of BCL proteins with binding partners” (Infinity Pharmaceuticals, Inc., priority 2004, dated 2010)

What was measured:
Bcl-2 = Bcl-2 (Homo sapiens, UniProt P10415); test: Bcl-2 binding affinity analysis (fluorescence polarization binding assay)
How it was run: (§1)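 Quantitative binding by polarized-fluorescence detection; in vitro, no cells involved.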

Bcl-xL = Bcl-xL (Homo sapiens, UniProt Q07817); test: Bcl-xL binding affinity analysis (fluorescence polarization binding assay); parameters: scale not given here
Sequence of Bcl-xL (Q07817 whole entry): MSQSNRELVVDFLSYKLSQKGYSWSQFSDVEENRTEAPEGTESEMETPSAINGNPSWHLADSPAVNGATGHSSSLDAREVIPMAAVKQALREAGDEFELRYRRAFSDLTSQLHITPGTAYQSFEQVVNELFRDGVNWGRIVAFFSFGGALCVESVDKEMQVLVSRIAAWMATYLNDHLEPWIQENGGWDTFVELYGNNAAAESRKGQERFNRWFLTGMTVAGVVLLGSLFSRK
How it was run: as §1

Sequence of Bcl-2 (P10415 whole entry): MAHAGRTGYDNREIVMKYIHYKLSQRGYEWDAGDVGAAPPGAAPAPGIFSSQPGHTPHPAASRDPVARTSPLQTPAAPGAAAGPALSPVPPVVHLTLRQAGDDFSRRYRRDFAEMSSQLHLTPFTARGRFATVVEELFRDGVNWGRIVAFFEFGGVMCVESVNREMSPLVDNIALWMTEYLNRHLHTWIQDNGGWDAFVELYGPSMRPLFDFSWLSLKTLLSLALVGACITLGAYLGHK

SMILES	Ki (Bcl-2) [nM]	Bcl-XL binding affinity Ki (Bcl-xL)
C[C@@H]1[C@@H](NC(=O)[C@@H]2C([C@H](C)O)[C@H](CO)ON2Cc2cccc(CN(CCN(C)C)Cc3ccccc3N3CCCCC3)c2)C[C@H]2C[C@@H]1C2(C)C (stereo partly shown) [Compound 410]	< 800	♯
CCN(CC)CCN(Cc1cccc(CN2OC(CO)C(C(C)O)C2C(=O)NC2CC3CC(C2C)C3(C)C)c1)CC1CCCCC1 (stereo not shown) [Compound 419]	< 800	♯
CCCC(CN(C)C)N(Cc1cccc(CN2OC(CO)C(C(C)O)C2C(=O)NC2CC3CC(C2C)C3(C)C)c1)Cc1ccccc1Cl (stereo not shown) [Compound 438]	< 800	♯
C[C@@H]1[C@@H](NC(=O)[C@@H]2C([C@H](C)O)[C@H](CO)ON2Cc2cccc(CN(Cc3ccccc3)C[C@@H]3CCCN3C(=O)OCc3ccccc3)c2)C[C@H]2C[C@@H]1C2(C)C (stereo partly shown) [Compound 439]	800 to 6000	♯
CCC(C)C(CN(C)C)N(Cc1cccc(CN2OC(CO)C(C(C)O)C2C(=O)NC2CC3CC(C2C)C3(C)C)c1)Cc1c(O)cccc1F (stereo not shown) [Compound 440]	< 800	♯
C[C@@H]1[C@@H](NC(=O)[C@@H]2C([C@H](C)O)[C@H](CO)ON2Cc2cccc(CN(CCN(C)C)C(c3ccccc3)c3ccccc3)c2)C[C@H]2C[C@@H]1C2(C)C (stereo partly shown) [Compound 441]	< 800	♯
CC(O)C1C(CO)ON(Cc2cccc(CNC(CCc3ccccc3)CN(C)C)c2)C1C(=O)NC1CC2CC(C1C)C2(C)C (stereo not shown) [Compound 445]	< 800	♯
CC(O)C1C(CO)ON(Cc2cccc(CN(C)CC(=O)N(C)C)c2)C1C(=O)NC1CC2CC(C1C)C2(C)C (stereo not shown) [Compound 446]	< 800	♯
CC(O)C1C(CO)ON(Cc2cccc(CN3CCC(c4ccccc4)C3CN(C)C)c2)C1C(=O)NC1CC2CC(C1C)C2(C)C (stereo not shown) [Compound 450]	< 800	♯
CC(O)C1C(CO)ON(Cc2cccc(CN3CC(c4ccccc4)CC3CN(C)C)c2)C1C(=O)NC1CC2CC(C1C)C2(C)C (stereo not shown) [Compound 457]	< 800	♯
CC(O)C1C(CO)ON(Cc2cccc(CN3CCN(C(=O)OCc4ccccc4)CC3)c2)C1C(=O)NC1CC2CC(C1C)C2(C)C (stereo not shown) [Compound 458]	800 to 6000	♯
CC(O)C1C(CO)ON(Cc2cccc(CNC(Cc3ccccc3)CN(C)C)c2)C1C(=O)NC1CC2CC(C1C)C2(C)C (stereo not shown) [Compound 467]	< 800	♯
CC(O)C1C(CO)ON(Cc2cccc(CNC(CCc3ccccc3)CN(C)C)c2)C1C(=O)NC1CC2CC(C1C)C2(C)C (stereo not shown) [Compound 468]	< 800	♯
CC(O)C1C(CO)ON(Cc2cccc(CN3Cc4ccccc4C3C(=O)N(C)C)c2)C1C(=O)NC1CC2CC(C1C)C2(C)C (stereo not shown) [Compound 469]	< 800	♯
CC(O)C1C(CO)ON(Cc2cccc(CN(CCN(C)C)C(C)(C)c3ccccc3)c2)C1C(=O)NC1CC2CC(C1C)C2(C)C (stereo not shown) [Compound 475]	< 800	♯
CC(O)C1C(CO)ON(Cc2cccc(CN(CCN(C)C)c3ccccc3)c2)C1C(=O)NC1CC2CC(C1C)C2(C)C (stereo not shown) [Compound 476]	< 800	♯
CC(O)C1C(CO)ON(Cc2cccc(C(=O)NC(CC3CCCCC3)CN(C)C)c2)C1C(=O)NC1CC2CC(C1C)C2(C)C (stereo not shown) [Compound 499]	< 800	♯
CC(O)C1C(CO)ON(Cc2cccc(C(=O)NCCc3ccccc3)c2)C1C(=O)NC1CC2CC(C1C)C2(C)C (stereo not shown) [Compound 503]	< 800	♯
CC(O)C1C(CO)ON(Cc2cccc(C(=O)N(CCN(C)C)Cc3ccccc3)c2)C1C(=O)NC1CC2CC(C1C)C2(C)C (stereo not shown) [Compound 504]	< 800	♯
CC(O)C1C(CO)ON(Cc2cccc(C(=O)NC(CN(C)C)c3ccccc3)c2)C1C(=O)NC1CC2CC(C1C)C2(C)C (stereo not shown) [Compound 506]	< 800	♯
CC(O)C1C(CO)ON(Cc2cccc(C(=O)NCc3ccccc3)c2)C1C(=O)NC1CC2CC(C1C)C2(C)C (stereo not shown) [Compound 510]	< 800	♯
CC(O)C1C(CO)ON(Cc2cccc(C(=O)NC(CCc3ccccc3)CN(C)C)c2)C1C(=O)NC1CC2CC(C1C)C2(C)C (stereo not shown) [Compound 511]	< 800	♯
C[C@H](O)[C@@H]1[C@H](CO)ON(Cc2cccc(CN(CCN(C)C)Cc3ccccc3)c2)[C@@H]1C(=O)NCCc1cccc(-c2ccccc2)c1 [Compound 513]	800 to 6000	♯
C[C@H](O)[C@@H]1[C@H](CO)ON(Cc2cccc(CN(CCN(C)C)Cc3ccccc3)c2)[C@@H]1C(=O)NCCc1cccc(Br)c1 [Compound 514]	800 to 6000	♯

SMILES	Ki (Bcl-2) [nM]	Bcl-XL binding affinity Ki (Bcl-xL)
C[C@H](O)[C@@H]1[C@H](CO)ON(Cc2cccc(CN(CCN(C)C)Cc3ccccc3)c2)[C@@H]1C(=O)Nc1cccc(-c2ccccc2)c1 [Compound 515]	< 800	♯
C[C@H](O)[C@@H]1[C@H](CO)ON(Cc2cccc(CN(CCN(C)C)Cc3ccccc3)c2)[C@@H]1C(=O)NCCc1c[nH]c2ccccc12 [Compound 516]	6000 to 50000	♯
C[C@H](O)[C@@H]1[C@H](CO)ON(Cc2cccc(CN(CCN(C)C)Cc3ccccc3)c2)[C@@H]1C(=O)NCCCN(C)C [Compound 517]	6000 to 50000	♯
C[C@H](O)[C@@H]1[C@H](CO)ON(Cc2cccc(CN(CCN(C)C)Cc3ccccc3)c2)[C@@H]1C(=O)N[C@H]1CCN(Cc2ccccc2)C1 [Compound 518]	6000 to 50000	♯
C[C@H](O)[C@@H]1[C@H](CO)ON(Cc2cccc(CN(CCN(C)C)Cc3ccccc3)c2)[C@@H]1C(=O)NCCCCc1ccccc1 [Compound 519]	800 to 6000	♯
C[C@H](O)[C@@H]1[C@H](CO)ON(Cc2cccc(CN(CCN(C)C)Cc3ccccc3)c2)[C@@H]1C(=O)NCC(c1ccccc1)c1ccccc1 [Compound 520]	800 to 6000	♯
C[C@H](NC(=O)[C@@H]1[C@H]([C@H](C)O)[C@H](CO)ON1Cc1cccc(CN(CCN(C)C)Cc2ccccc2)c1)c1ccc2ccccc2c1 [Compound 521]	800 to 6000	♯
C[C@H](O)[C@@H]1[C@H](CO)ON(Cc2cccc(CN(CCN(C)C)Cc3ccccc3)c2)[C@@H]1C(=O)N[C@H](C)c1ccc2ccccc2c1 [Compound 522]	800 to 6000	♯
C[C@H](O)[C@@H]1[C@H](CO)ON(Cc2cccc(CN(CCN(C)C)Cc3ccccc3)c2)[C@@H]1C(=O)NCCCc1ccccc1 [Compound 525]	6000 to 50000	♯
C[C@H](O)[C@@H]1[C@H](CO)ON(Cc2cccc(CN(CCN(C)C)Cc3ccccc3)c2)[C@@H]1C(=O)NCc1ccc(-c2ccccc2)cc1 [Compound 526]	< 800	♯
C[C@H](O)[C@@H]1[C@H](CO)ON(Cc2cccc(CN(CCN(C)C)Cc3ccccc3)c2)[C@@H]1C(=O)NC1CCN(Cc2ccccc2)CC1 [Compound 527]	6000 to 50000	♯
C[C@H](O)[C@@H]1[C@H](CO)ON(Cc2cccc(CN(CCN(C)C)Cc3ccccc3)c2)[C@@H]1C(=O)NC1CCN(C(=O)OC(C)(C)C)CC1 [Compound 528]	6000 to 50000	♯
CC(C)C[C@@H](CN(C)C)N(Cc1ccccc1)Cc1cccc(CN2O[C@@H](CO)[C@@H]([C@H](C)O)[C@H]2C(=O)NCCCn2ccnc2)c1 [Compound 529]	6000 to 50000	♯
CC(C)C[C@@H](CN(C)C)N(Cc1ccccc1)Cc1cccc(CN2O[C@@H](CO)[C@@H]([C@H](C)O)[C@H]2C(=O)NCc2ccc(Oc3ccccc3)cc2)c1 [Compound 530]	800 to 6000	♯
CC(C)C[C@@H](CN(C)C)N(Cc1ccccc1)Cc1cccc(CN2O[C@@H](CO)[C@@H]([C@H](C)O)[C@H]2C(=O)NCCCN(C)c2ccccc2)c1 [Compound 531]	800 to 6000	♯
CC(C)C[C@@H](CN(C)C)N(Cc1ccccc1)Cc1cccc(CN2O[C@@H](CO)[C@@H]([C@H](C)O)[C@H]2C(=O)NCc2cccc3ccccc23)c1 [Compound 532]	800 to 6000	♯
CC(C)CCNC(=O)[C@@H]1[C@H]([C@H](C)O)[C@H](CO)ON1Cc1cccc(CN(Cc2ccccc2)[C@@H](CC(C)C)CN(C)C)c1 [Compound 533]	800 to 6000	♯
COCCNC(=O)[C@@H]1[C@H]([C@H](C)O)[C@H](CO)ON1Cc1cccc(CN(Cc2ccccc2)[C@@H](CC(C)C)CN(C)C)c1 [Compound 535]	6000 to 50000	♯
CC(C)C[C@@H](CN(C)C)N(Cc1ccccc1)Cc1cccc(CN2O[C@@H](CO)[C@@H]([C@H](C)O)[C@H]2C(=O)NCc2ccc(-c3ccccc3)cc2)c1 [Compound 536]	800 to 6000	♯
CC(C)C[C@@H](CN(C)C)N(Cc1ccccc1)Cc1cccc(CN2O[C@@H](CO)[C@@H]([C@H](C)O)[C@H]2C(=O)NCc2cccc(-c3ccccc3)c2)c1 [Compound 537]	800 to 6000	♯
CC(C)C[C@@H](CN(C)C)N(Cc1ccccc1)Cc1cccc(CN2O[C@@H](CO)[C@@H]([C@H](C)O)[C@H]2C(=O)NC(C)C)c1 [Compound 539]	6000 to 50000	♯
CC(C)CNC(=O)[C@@H]1[C@H]([C@H](C)O)[C@H](CO)ON1Cc1cccc(CN(Cc2ccccc2)[C@@H](CC(C)C)CN(C)C)c1 [Compound 540]	6000 to 50000	♯
CC(C)C[C@@H](CN(C)C)N(Cc1ccccc1)Cc1cccc(CN2O[C@@H](CO)[C@@H]([C@H](C)O)[C@H]2C(=O)NCc2ccccc2)c1 [Compound 542]	800 to 6000	♯
